Source: publication PMC4877642 (2016)

How the values were obtained:
[1] = test system: X-Aptamer 5 (DNA, aptamer, dU with phenol (tyrosine) at C5 (Y) at 23; dU with indole (tryptophan) at C5 (W) at 37 and 38) TTTTTTTCTAGCTTCCGTGAAATCAACGTGCCCTGGTTCGTCTAGTTTTT; assay: SPR imaging; conditions: 10 mM PBS; pH 7.4, 4% acetonitrile, room temperature; tested at 63 µg/mL
[2] = test system: X-Aptamer 9 (DNA, aptamer, dU with phenol (tyrosine) at C5 (Y) at 23; dU with indole (tryptophan) at C5 (W) at 36, 37 and 39) TTTTTTTCTAGCTTCCGTGAAATCAACGTGCCCTGTTATCGCTAGTTTTT; assay: SPR imaging, kinetic 1:1 fit; conditions: 10 mM PBS; pH 7.4, 4% acetonitrile, room temperature; 150 µM progesterone injected in screening
[3] = test system: X-Aptamer 8 (DNA, aptamer, dU with phenol (tyrosine) at C5 (Y) at 23; dU with indole (tryptophan) at C5 (W) at 37, 39 and 41) TTTTTTTCTAGCTTCCGTGAAATCAACGTGCCCTGGTATCTGATCTTTTT; assay: SPR imaging, kinetic 1:1 fit; conditions: 10 mM PBS; pH 7.4, 4% acetonitrile, room temperature; 150 µM progesterone injected in screening
[4] = test system: X-Aptamer 7 (DNA, aptamer, dU with phenol (tyrosine) at C5 (Y) at 23; dU with indole (tryptophan) at C5 (W) at 36 and 37) TTTTTTTCTAGCTTCCGTGAAATCAACGTGACCTGTTTAGTGATCTTTTT; assay: SPR imaging, kinetic 1:1 fit; conditions: 10 mM PBS; pH 7.4, 4% acetonitrile, room temperature; 150 µM progesterone injected in screening
[5] = test system: X-Aptamer 6 (DNA, aptamer, dU with phenol (tyrosine) at C5 (Y) at 23; dU with indole (tryptophan) at C5 (W) at 37) TTTTTTTCTAGCTTCCGTGAAATCAACGTGCCCTGGTTAGTCTAGTTTTT; assay: SPR imaging, kinetic 1:1 fit; conditions: 10 mM PBS; pH 7.4, 4% acetonitrile, room temperature; 150 µM progesterone injected in screening
[6] = test system: X-Aptamer 3 (DNA, aptamer, dU with phenol (tyrosine) at C5 (Y) at 18; dU with indole (tryptophan) at C5 (W) at 38) TTTTTTTCTAGAGATGTTTGTCTCAACGTGCCCTGCGTCGTGATCTTTTT; assay: SPR imaging, kinetic 1:1 fit; conditions: 10 mM PBS; pH 7.4, 4% acetonitrile, room temperature; 150 µM progesterone injected in screening
[7] = test system: X-Aptamer 5 (DNA, aptamer, dU with phenol (tyrosine) at C5 (Y) at 23; dU with indole (tryptophan) at C5 (W) at 37 and 38) TTTTTTTCTAGCTTCCGTGAAATCAACGTGCCCTGGTTCGTCTAGTTTTT; assay: SPR imaging, kinetic 1:1 fit; conditions: 10 mM PBS; pH 7.4, 4% acetonitrile, room temperature; 150 µM progesterone injected in screening
[8] = test system: X-Aptamer 2 (DNA, aptamer, dU with phenol (tyrosine) at C5 (Y) at 18; dU with indole (tryptophan) at C5 (W) at 38) TTTTTTTCTAGCTTCGTTTGTCTCAACGTGCCCTGCGTCGTGATCTTTTT; assay: SPR imaging, kinetic 1:1 fit; conditions: 10 mM PBS; pH 7.4, 4% acetonitrile, room temperature; 150 µM progesterone injected in screening

| binding [1] | KD [2] [nM] | KD [3] [nM] | KD [4] [nM] | KD [5] [nM] | KD [6] [nM] | KD [7] [nM] | KD [8] [nM] | SMILES |
| --- | --- | --- | --- | --- | --- | --- | --- | --- |
| no | – | – | – | – | – | – | – | C[C@]12CC[C@@H]3c4ccc(O)cc4CC[C@H]3[C@@H]1CC[C@@H]2O |
| – | 0.06186 ± 7.6e-05 | 0.04079 ± 7.6e-05 | 0.14037 ± 6.4e-05 | 0.05303 ± 6.1e-05 | 0.02174 ± 8.7e-05 | 0.02558 | 0.04951 ± 9.9e-05 | CC(=O)[C@H]1CC[C@H]2[C@@H]3CCC4=CC(=O)CC[C@]4(C)[C@H]3CC[C@]12C |
